# Data taken from patent publication US7485626B2, “Combinations of enzyme inhibitor-containing preparations and the use thereof” (IMTM GmbH, priority 2000, dated 2009).
# Tests used:
# Assay type in all cases: cell-based
# [1] = test system: human peripheric mononuclear cells (MNZ); experiment: Proliferation of PHA-activated human mononuclear cells (WST-1 cell proliferation assay); conditions: 72 h; for Proliferation of PHA-activated human mononuclear cells (MNZ), number of metabolically active cells: single or simultaneous administration of I49 and Apstatin (X-Pro-aminopeptidase inhibitor), FIG. 10; for Proliferation of human peripheric mononuclear cells (MNZ), number of metabolically active cells: single and simultaneous administration of I49 and Actinonin, PHA, FIG. 7
# Description: FIG. 7: The MNZ were incubated for a time period of 72 h without addition (control), with an addition of the mitogenic lectin phytohemagglutinin (PHA), and with the addition of PHA and the inhibitors mentioned above, respectively. Subsequently, the number amount of metabolically active cells was determined by using the commercially available WST-1 cell proliferation assay (Takara Inc.) in accordance with the provisions of the manufacturer.
# FIG. 10: The mononuclear cells (MNZ) were incubated for a time period of 72 h in the presence of the inhibitors mentioned above single and in combination. Subsequently, the number of metabolically active cells was determined by using the commercially available WST-1 cell proliferation assay (Takara Inc.) in accordance with the provisions of the manufacturer.
# [2] = test system: human peripheric T lymphocytes; experiment: DNA synthesis of human T lymphocytes (3[H]-thymidine incorporation); conditions: 72 h incubation; for DNA synthesis of human peripheric T lymphocytes: simultaneous administration of I49 (DP IV inhibitor) and Actinonin (APN inhibitor), FIG. 1
# Description: The T cells were incubated for 72 h in the presence of said inhibitors and subsequently, the DNA synthesis rate was determined via a measurement of the ^3[H]-thymidin incorporation, as was described by Reinhold et al. [D. Reinhold et al.: “Inhibitors of dipeptidyl peptidase IV induce secretion of transforming growth factor β1 in PWM-stimulated PBMNC and T cells”, Immunology 1997, 91, 354-360].
# Human peripheric T cells were incubated over 3 days with the concentrations of the inhibitors shown. Subsequently, ^3[H]-methyl thymidine was added to the culture medium, and the amount of ^3[H]-thymidine inserted into the DNA was measured after further 6 hours.
# The T cells were incubated for 72 h in the presence of said inhibitors, and the DNA synthesis rate was determined subsequently by the measurement of the ^3[H]-thymidine incorporation, as was described by Reinhold et al. [D. Reinhold et al.: “Inhibitors of dipeptidyl peptidase IV induce secretion of transforming growth factor β1 in PWM-stimulated PBMNC and T cells”, Immunology 1997, 91, 354-360].
# FIG. 3 show a the synergistic and dose-dependent effect of inhibitors of DP IV (I49) and of prolyl oligopeptidase (Boc-Ala-Thia) on the DNA synthesis of human peripheric T lymphocytes. Human T cells were incubated for three days with the concentrations of inhibitors mentioned above. Subsequently, ^3[H]-methyl thymidine was added to the culture medium, and the amount of ^3[H]-thymidine incorporated into the DNA was measured after further 6 hours.
# Human T cells were incubated for three days with the concentrations of inhibitors mentioned above. Subsequently, ^3[H]-methyl thymidine was added to the culture medium, and the amount of ^3[H]-thymidine incorporated into the DNA was measured after further 6 hours.
# [3] = test system: human peripheric mononuclear cells (MNZ); experiment: DNA synthesis of human peripheric mononuclear cells (3[H]-thymidine incorporation); conditions: 72 h incubation
# Description: The MNZ were incubated for 72 h in the presence of said inhibitors, and the DNA synthesis rate was determined subsequently by the measurement of the ^3[H]-thymidine incorporation, as was described by Reinhold et al. [D. Reinhold et al.: “Inhibitors of dipeptidyl peptidase IV induce secretion of transforming growth factor β1 in PWM-stimulated PBMNC and T cells”, Immunology 1997, 91, 354-360].
# Human MNZ were incubated for three days with the concentrations of inhibitors mentioned above. Subsequently, ^3[H]-methyl thymidine was added to the culture medium, and the amount of ^3[H]-thymidine incorporated into the DNA was measured after further 6 hours.
# [4] = test system: human T cell line KARPAS-299; experiment: Proliferation of KARPAS-299 cells (WST-1 cell proliferation assay); conditions: single and simultaneous administration of I49 and APN inhibitors (Actinonin and Probestin); FIG. 8
# Description: FIG. 8: The KARPAS-299 cells were incubated without addition (control) and in the presence of single inhibitors mentioned above as well as in the presence of combinations thereof, respectively. Subsequently, the number of metabolically active cells was determined by using the commercially available WST-1 cell proliferation assay (Takara Inc.) in accordance with the provisions of the manufacturer.
# [5] = test system: activated human peripheric T cells; experiment: Proliferation of activated human peripheric T cells (WST-1 cell proliferation assay); conditions: single or simultaneous administration of I49 and APN inhibitors (Actinonin and Probestin); activated with phytohemagglutinine and phorbol-12-myristate-13-acetate; 72 h; FIG. 9
# Description: FIG. 9: The T cells, with the exception of the untreated control, were activated by an addition of phytohemagglutinine and phorbol-12-myristate-13-acetate to the culture medium and were incubated for a time period of 72 h in the presence of the above-mentioned inhibitors single and in combination. Subsequently, the number of metabolically active cells was determined by using the commercially available WST-1 cell proliferation assay (Takara Inc.) in accordance with the provisions of the manufacturer.
# [6] = simultaneous administration of I49 (DP IV inhibitor) and Boc-Ala-thiazolidid (prolyl oligopeptidase inhibitor), FIG. 3
# [7] = simultaneous administration of I49 (DP IV inhibitor) and Boc-Ala-Thiazolidid (prolyl oligopeptidase inhibitor), FIG. 4
# [8] = simultaneous administration of I49 (DP IV inhibitor) and actinonine (APN inhibitor), FIG. 2
# [9] = simultaneous administration of I49 (DP IV inhibitor) and Captopril (ACE inhibitor), FIG. 5
# [10] = simultaneous administration of I49 (DP IV inhibitor) and Captopril (ACE inhibitor), FIG. 6
structure (smiles),measurement,setting,value
C[C@H](NC(=O)[C@@H]1CCCN1C(=O)[C@@H]1CCCN1C(=O)[C@@H](O)[C@H](N)Cc1ccccc1)C(N)=O [Apstatin],"Proliferation of PHA-activated human mononuclear cells (MNZ), number of metabolically active cells",[1],Inhibition of the Proliferation
CC(NC(=O)OC(C)(C)C)C(=O)N1CCSC1 (stereo not drawn) [Boc-Ala-thiazolidid],DNA synthesis of human T lymphocytes,[2]; [6],inhibited in a superadditive manner
same,DNA synthesis of human peripheric mononuclear cells (MNZ),[3]; [7],inhibited in a superadditive manner
CCCCC[C@H](CC(=O)NO)C(=O)N[C@H](C(=O)N1CCC[C@H]1CO)C(C)C [Actinonin],DNA synthesis of human peripheric T lymphocytes,[2],inhibited in a superadditive manner
same,DNA synthesis of human peripheric mononuclear cells (MNZ),[3]; [8],inhibited in a superadditive manner
same,"Proliferation of human peripheric mononuclear cells (MNZ), number of metabolically active cells",[1],Inhibition of the Proliferation
same,"Proliferation of the human T cell line KARPAS-299, number of metabolically active cells",[4],Inhibition of the Proliferation
same,"Proliferation of activated human peripheric T cells, number of metabolically active cells",[5],Inhibition of the Proliferation
CC(C)C[C@H](NC(=O)[C@@H](O)[C@H](N)Cc1ccccc1)C(=O)N1CCC[C@H]1C(=O)N1CCC[C@H]1C(=O)O [Probestin],"Proliferation of the human T cell line KARPAS-299, number of metabolically active cells",[4],Inhibition of the Proliferation
same,"Proliferation of activated human peripheric T cells, number of metabolically active cells",[5],Inhibition of the Proliferation
"NC(CCCCNC(=O)OCc1ccc([N+](=O)[O-])cc1)C(=O)N1CCSC1 (stereo not shown) [I49, Lys[Z(NO2)]-thiazolidid]",DNA synthesis of human peripheric T lymphocytes,[2],inhibited in a superadditive manner
same,DNA synthesis of human T lymphocytes,[2]; [6],inhibited in a superadditive manner
same,DNA synthesis of human T lymphocytes,[2]; [9],inhibited in a superadditive manner
same,DNA synthesis of human peripheric mononuclear cells (MNZ),[3]; [7],inhibited in a superadditive manner
same,DNA synthesis of human peripheric mononuclear cells (MNZ),[3]; [10],inhibited in a superadditive manner
same,DNA synthesis of human peripheric mononuclear cells (MNZ),[3]; [8],inhibited in a superadditive manner
same,"Proliferation of human peripheric mononuclear cells (MNZ), number of metabolically active cells",[1],Inhibition of the Proliferation
same,"Proliferation of PHA-activated human mononuclear cells (MNZ), number of metabolically active cells",[1],Inhibition of the Proliferation
same,"Proliferation of the human T cell line KARPAS-299, number of metabolically active cells",[4],Inhibition of the Proliferation
same,"Proliferation of activated human peripheric T cells, number of metabolically active cells",[5],Inhibition of the Proliferation
C[C@H](CS)C(=O)N1CCC[C@H]1C(=O)O [Captopril],DNA synthesis of human T lymphocytes,[2]; [9],inhibited in a superadditive manner
same,DNA synthesis of human peripheric mononuclear cells (MNZ),[3]; [10],inhibited in a superadditive manner
